Entries after “also recorded” stand apart in the source; their conditions may differ. Where two headings read alike, the source gives them in different places.
Key:
S1P1 [1] = molecular target: T1, S1P1 (Homo sapiens (Human), UniProt P21453); test: Receptor [35S] GTPγS binding assay (S1P1 GTPγS), membranes from S1P1/CHO cells; assay type: biochemical; settings: for activity as an agonist of S1P1: result in words
Protocol: (§1) Receptor [^35S] GTPγS Binding Assays: (S1P1 GTPγS/S1P3 GTPγS)
(§2) Membranes prepared from S1P1/CHO cells or EDG3-Gal5-bla HEK293T cells (EDG3 equivalent S1P3) were added to the compound plate ([…], final protein 3 μg/well) with MULTIDROP®. [^35S]GTP (1250 Ci/mmol, Perkin Elmer) was diluted in assay buffer: 20 mM HEPES, pH7.5, 10 mM MgCl2, 150 mM NaCl, 1 mM EGTA (ethylene glycol tetraacetic acid), 1 mM DTT (Dithiothreitol), 10 μM GDP, 0.1% fatty acid free BSA, and 10 μg/ml Saponin to 0.4 nM. 40 μl of the [^35S] GTP solution was added to the compound plate with a final concentration of 0.2 nM. The reaction was kept at room temperature for 45 min. At the end of incubation, all the mixtures in the compound plate were transferred to Millipore 384-well FB filter plates via the VELOCITY11® Vprep liquid handler. The filter plate was washed with water 4 times by using the manifold Embla plate washer and dried at 60° C. for 45 min. MicroScint 20 scintillation fluid (30 μl) was added to each well for counting on the Packard TOPCOUNT®.
A larger value for the GTPγS S1P3 EC50 value indicated less activity in the GTPγS S1P3 binding assay.

S1P3 (EDG3) = S1P3 (EDG3) (Homo sapiens (Human), UniProt Q99500); test: Receptor [35S] GTPγS binding assay (S1P3 GTPγS), membranes from EDG3-Gal5-bla HEK293T cells; assay type: biochemical
Protocol: as §1
as §2, with “Compounds were loaded in a 384 Falcon v-bottom plate ([…] in a 11 point, 3-fold dilution). Membranes” for “Membranes”
A smaller value for GTPγS S1P1 EC50 value indicated greater activity for the compound in the GTPγS S1P1 binding assay. A larger value for the GTPγS S1P3 EC50 value indicated less activity in the GTPγS S1P3 binding assay. […]

S1P1 [2] = molecular target: T1, S1P1; test: S1P1 binding assay (33P-S1P radioligand competition, membranes from CHO cells)
Protocol: Membranes were prepared from CHO cells expressing human S1P1. Cells pellets (1×10^9 cells/pellet) were suspended in buffer containing 20 mM HEPES (4-(2-hydroxyethyl)-1-piperazineethanesulfonic acid), pH 7.5, 50 mM NaCl, 2 mM EDTA (Ethylenediaminetetraacetic acid) and Protease Inhibitor cocktail (Roche), and disrupted on ice using the Polytron homogenizer. The homogenate was centrifuged at 20,000 rpm (48,000 g) and the supernatant was discarded. The membrane pellets were resuspended in buffer containing 50 mM HEPES, pH 7.5, 100 mM NaCl, 1 mM MgCl2, 2 mM EDTA and stored in aliquots at −80° C. after protein concentration determination.

[3] = tested on: rat adjuvant-induced arthritis model (hind paw volume); test: Rat Adjuvant Induced Arthritis Assay (AA); assay type: in vivo, Lewis rats; settings: Lewis rat, prophylactic oral dosing regimen
Protocol: Rat Adjuvant Induced Arthritis Assay (AA)
The rat adjuvant-induced arthritis model is an animal model for human rheumatoid arthritis.
Male Lewis rats (150-175 g; Harlan, n=8 treatment group) were immunized at the base of the tail with 100 μl of 10 mg/ml freshly ground Mycobacterium butyricum (Difco Laboratories) in incomplete Freund's adjuvant (sigma). Animals were dosed once daily with the test article (as a solution or suspension in the vehicle) or vehicle alone (polyethylene glycol 300, “PEG300”) starting from the day of immunization. The volumes of their hind paws were measured in a water displacement plethysmometer (Ugo Basile, Italy). The baseline paw measurements were taken before onset of the disease (between day 7 to day 10). The paw measurements were then taken three times a week until the end of the study on day 20 to 21. All procedures involving animals were reviewed and approved by the Institutional Animal Care Use Committee.

[4] = tested on: mouse EAE model (clinical score); test: Mouse Experimental Autoimmune Encephalomyelitis Assay (EAE); assay type: in vivo; settings: C57Bl/6 mice, prophylactic oral dosing regimen
Protocol: Mouse Experimental Autoimmune Encephalomyelitis Assay (EAE)
Mice (C57BL/6 female, 6-8 weeks of age, Charles River, n=10 treatment group) were immunized subcutaneously with 150 μg MOG35-55 emulsified 1:1 with incomplete Freund's adjuvant (sigma) supplemented with 150 μg Mycobacterium tuberculosis H37RA (Difco Laboratories). 400 ng of pertussis toxin (CalBiochem) was injected intraperitoneally on the day of immunization and 2 day later. Clinical scoring and body weight were taken 3 times per week. Clinical scoring system: 0.5: partial tail weakness; 1: limp tail or waddling gait with tail tonicity; 1.5: waddling gait with partial tail weakness; 2: waddling gait with limp tail (ataxia); 2.5: ataxia with partial limb paralysis; 3: full paralysis of one limb; 3.5: full paralysis of one limbs with partial paralysis of a second limb; 4: full paralysis of two limbs; 4.5: moribund; 5: death. Mean clinical score was calculated by averaging the scores of all mice in each group. All procedures involving animals were reviewed and approved by the Institutional Animal Care Use Committee.

[5] = tested on: rat EAE model (clinical score); test: Rat Experimental Autoimmune Encephalomyelitis (EAE); assay type: in vivo, Lewis rats; settings: Lewis rat; for Clinical Score on Day 11 (Mean): rat EAE, prophylactic oral dosing
Protocol: Rat Experimental Autoimmune Encephalomyelitis (EAE):
Female Lewis rats (150-200 g; Harlan) were immunized at the base of the tail with 0.1 ml of a complete Freund's adjuvant emulsion containing 0.5 mg/mL guinea pig myelin basic protein (Genemed Synthesis) and 2 mg/mL Mycobacterium butyricum (Difco). Beginning on Day 7, rats (n=11/group) were scored individually at least 3×/wk according to the following scheme:
Average clinical scores were calculated for each treatment group on each day of assessment.

[6] = tested on: MRL/lpr spontaneous lupus model; test: MRL/lpr Lupus Model (anti-dsDNA antibody titers, kidney histology); assay type: in vivo; settings: MRL/lpr mice, p.o. daily, 0.06, 0.3, 1.5 mg/kg
From the text: MRL/lpr Lupus Model: MRL/lpr is a spontaneous model of lupus. Male MRL/lpr mice (Jackson Laboratory) at the age of 12-14 weeks were enrolled for the study (N=12). […] Mice were bled every other week for anti-dsDNA antibodies measured by ELISA using pooled serum from diseased MRL/lpr mice as a positive comparator in each assay. The data were expressed in arbitrary units as a ratio of the titer of the test serum to the titer of the pooled MRL/lpr immune serum. At the end of study, one kidney was collected into 10% neutral buffered formalin and ZincTris fixatives. Fixed tissues were processed into paraffin blocks, sectioned at 3 μm, and stained with H&E or PASH. Kidney sections were graded using following criteria: Glomerular Damage: 1. Mesangial matrix thickening, cell proliferation, 2. Crescent formation, cellular deposits/casts in Bowman's space, 3. Cellular infiltration, mononuclear cells in glomerular tufts, 4. Fibrosis of Bowman's capsule. Tubular damage: 1. Infiltration of mononuclear cells, 2. Severity of tubular damage, 3. Protein casts. Tubulo-interstitial damage: 1. Fibrosis, 2. Infiltration of mononuclear cells. Each subcategory was assigned a score from 0-4, with the scores for glomerular indices representing the mean from 20 glomeruli per kidney. The total score for each mouse was the sum of the above 9 subcategories, with the highest possible score=36.

hS1P1 = hS1P1 (Homo sapiens (Human), UniProt P21453); test: hS1P1 ERK phosphorylation (S1P1 pERK) in hS1P1/CHO cells; assay type: cell-based; settings: phosphate examples
Protocol: hS1P1 ERK Phosphorylation (S1P1 pERK)
hS1P1/CHO cells were plated into BD Amine 384-well plates the day before the assay. On the day of the assay, growth medium was removed and replaced with serum-free medium (Ham's F-12 Invitrogen) and incubated for 2 hours. Test compounds pre-diluted in HBSS (Gibco)/20 mM HEPES (Gibco) were transferred to the cell plates and incubated for 7 minutes at 37° C. Cells were lysed in lysis buffer (Perkin Elmer) and phospho-ERK was measured using the SureFire pERK kit (Perkin Elmer) as described by the manufacturer. Data was plotted as percentage activation of the test compound relative to the efficacy of 10 μM S1P.

[7] = membranes from S1P1/CHO cells, read-out: GTPγS S1P1 EC50
[8] = 33P-S1P competition, membranes from CHO cells expressing human S1P1, read-out: S1P1 Binding IC50

T1 sequence (P21453 whole entry): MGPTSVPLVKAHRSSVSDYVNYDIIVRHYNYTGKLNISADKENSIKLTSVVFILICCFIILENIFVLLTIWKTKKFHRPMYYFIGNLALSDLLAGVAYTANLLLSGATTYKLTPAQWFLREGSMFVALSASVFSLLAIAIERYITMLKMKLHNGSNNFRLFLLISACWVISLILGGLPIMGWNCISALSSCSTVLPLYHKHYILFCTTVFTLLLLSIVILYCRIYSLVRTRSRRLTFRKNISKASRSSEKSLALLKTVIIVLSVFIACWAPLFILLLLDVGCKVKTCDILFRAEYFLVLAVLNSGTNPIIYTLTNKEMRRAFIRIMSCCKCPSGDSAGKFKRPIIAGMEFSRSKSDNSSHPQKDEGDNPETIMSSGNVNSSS
Sequence of S1P3 (EDG3) (Q99500 whole entry): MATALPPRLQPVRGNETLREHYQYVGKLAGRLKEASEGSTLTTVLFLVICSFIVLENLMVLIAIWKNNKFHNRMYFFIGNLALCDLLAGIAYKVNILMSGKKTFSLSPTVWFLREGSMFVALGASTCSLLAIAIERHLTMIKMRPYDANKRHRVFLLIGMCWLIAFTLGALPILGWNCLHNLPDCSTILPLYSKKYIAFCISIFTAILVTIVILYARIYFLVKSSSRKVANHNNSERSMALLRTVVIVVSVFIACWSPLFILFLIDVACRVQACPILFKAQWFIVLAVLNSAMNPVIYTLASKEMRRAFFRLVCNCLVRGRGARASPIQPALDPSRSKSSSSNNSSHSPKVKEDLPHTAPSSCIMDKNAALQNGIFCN
Sequence of hS1P1 (P21453 whole entry): as the sequence (P21453 whole entry) above

COCCCCCC1CCc2cc([C@H]3CC[C@](N)(COP(=O)(O)O)C3)ccc2C1 (single isomer, unassigned) [Example 689]
activity as an agonist of S1P1 (S1P1 [1]): possessed activity as an agonist of S1P1 | selectivity over S1P3 (S1P3 (EDG3); result in words, S1P1 versus S1P3 GTPγS): selective over S1P3

COCCCCCC1CCc2cc([C@@H]3CC[C@](N)(COP(=O)(O)O)C3)ccc2C1 (single isomer, unassigned) [Example 692]
EC50 (S1P1 [1]; [7]): 4.4 nM

COc1cccc(CCC2CCc3cc([C@H]4CC[C@](N)(COP(=O)(O)O)C4)ccc3C2)c1 (single isomer, unassigned) [Example 693]
IC50 (S1P1 [2]; [8]): 5.2 nM | EC50 (S1P1 [1]; [7]): 19.2 nM

CCOCCCC1CCc2cc([C@H]3CC[C@](N)(COP(=O)(O)O)C3)ccc2C1 (single isomer, unassigned) [Example 695]
IC50 (S1P1 [2]; [8]): 119 nM | EC50 (S1P1 [1]; [7]): 49 nM

COc1ccccc1CCC1CCc2cc([C@H]3CC[C@](N)(COP(=O)(O)O)C3)ccc2C1 (single isomer, unassigned) [Example 697]
activity as an agonist of S1P1 (S1P1 [1]): possessed activity as an agonist of S1P1

COCCCCC[C@H]1CCc2cc([C@H]3CC[C@](N)(CO)C3)ccc2C1 [Example 672, ((1R,3S)-1-amino-3-((S)-6-(5-methoxypentyl)-5,6,7,8-tetrahydronaphthalen-2-yl)cyclopentyl)methanol]
inhibition of disease progression as measured by reduced paw swelling [3]: showed inhibition of disease progression

CCOCCC[C@@H]1CCc2cc([C@H]3CC[C@](N)(CO)C3)ccc2C1 [Example 679, ((1R,3S)-1-amino-3-((S)-6-(3-ethoxypropyl)-5,6,7,8-tetrahydronaphthalen-2-yl)cyclopentyl)methanol]
inhibition of disease progression as measured by clinical scores [4]: showed inhibition of disease progression; also recorded: inhibit disease progression | inhibition of disease progression as measured by reduced clinical scores ([5]; prophylactic oral dosing regimen): showed inhibition of disease progression | Clinical Score on Day 11 (Mean) ([5]; 0.3 mg/kg): 0.36 | Clinical Score on Day 11 (Mean) ([5]; 1.0 mg/kg): 0.09 | Clinical Score on Day 11 (Mean) ([5]; 3.0 mg/kg): 0.02 | inhibition of disease progression as measured by reduced paw swelling [3]: showed inhibition of disease progression

COc1ccccc1CC[C@@H]1CCc2cc([C@H]3CC[C@](N)(CO)C3)ccc2C1 [Example 681, ((1R,3S)-1-amino-3-((S)-6-(2-methoxyphenethyl)-5,6,7,8-tetrahydronaphthalen-2-yl)cyclopentyl)methanol]
inhibition of disease progression as measured by anti-dsDNA titers and kidney histology [6]: showed inhibition of disease progression | inhibition of disease progression as measured by clinical scores [4]: showed inhibition of disease progression; also recorded: inhibit disease progression

CCC/C=C/CO[C@@H]1CCc2cc([C@H]3CC[C@](N)(COP(=O)(O)O)C3)ccc2C1 [compound 439]
IC50 (S1P1 [2]; phosphate examples, read-out: S1P1 Binding): < 10 nM | EC50 (S1P1 [1]; phosphate examples, read-out: S1P1 GTPγS): 10 to 100 nM | EC50 (S1P3 (EDG3); phosphate examples): > 625 nM | EC50 (hS1P1): < 10 nM

Source: patent US10166249B2, “Substituted bicyclic compounds” (BRISTOL-MYERS SQUIBB COMPANY, priority 2014, dated 2019)
